Consider nine compounds from PubChem BioAssay AID1918939 (Molecular Pharmacology Branch, DTP, NCI, 2023).

pIC50: −log10 of the molar value. Several values for one entry are separate records, joined by “and”; a condition that tells them apart may be missing. Equal entries are not always repeated. Bounds are passed on as bounds.

The subject of this test is 653999-131-R-J2-PDC complex spheroid viability. Kind of test: Anticancer human tumor 653999-131-R-J2-PDC patient-derived lung adenocarcinoma cell line growth inhibition. The conditions noted are these: for viability, T/C: stronger effect = lower value; for pIC50: curve of compound. The text has this: Multicellular complex tumor spheroid response to LSD1 Inhibitor Iadademstat in combination with a variety of drugs and investigational agents in selected tumor cell lines
The current study was undertaken to assess response to LSD1 inhibitors in combination with standard-of-care drugs and investigational agents in solid tumor complex spheroid models as well as in the K-562 leukemia. Complex spheroids include a stromal component modeled by human endothelial cells (HUVEC) and fibroblasts modeled by human mesenchymal stem cells (MSCs). The concentration ranges selected for each drug and investigational agent were based upon clinically achievable concentrations if the clinical Cmax of the agent was known.
Compounds. The drugs and investigational agents used in this study are listed on Table 1. All of the agents used, including staurosporine (NSC755774) and gemcitabine (NSC613327), were obtained from the Developmental Therapeutics Program, NCI. FDA-approved anticancer drugs are available from the NCI at http://dtp.nci.nih.gov/branches/dscb/oncology_drugset_explanation.html. Drugs and investigational agents were >95% pure by proton nuclear magnetic resonance (NMR) and liquid chromatography/mass spectrometry (LC/MS). Stock solutions were prepared at 400x in DMSO, stored at -70 degrees C, and diluted in fresh medium prior to their use. The final concentration of DMSO in cell culture wells never exceeded 0.25% (v/v). The FDA-approved anticancer drug set is available from the Developmental Therapeutics Program at https://dtp.cancer.gov/organization/dscb/obtaining/available_plates.htm. All drugs and investigational agents were tested over a range starting from a high concentration at or near the clinical Cmax and decreasing in half-log increments. If the clinical Cmax for an agent had not been determined, the highest concentration tested was 10 microM.
Cell Lines. The patient-derived cancer cell (PDC) lines: 292921-168-R-J2-PDC, K24384-001-R-PDC, and 521955-158-R2-J5-PDC pancreatic carcinomas, 556581-035-R-J1 ovarian carcinoma, 324938-238-R-J1-PDC, 855422-203-R-J1-PDC and 883617-216-R-J1-PDC urothelial bladder carcinomas, 743489-274-T-PDC renal cell carcinoma, 138582-R-J1 Merkel cell tumor, K60290-347-R-J1 and K57222-313-R-J1-PDC glioblastomas, 653999-131-R-J2-PDC, LG0703-F948-PDC, and 349418-098-R-PDC non-small cell lung carcinomas, 885512-296-R-J2-PDC, 171881-019-R-J1-PDC breast carcinomas and 186277-243-T-J2-PDC and 233499-124-R-J2-PDC colon carcinomas were obtained from the NCI Patient-Derived Models Repository (PDMR, https://pdmr.cancer.gov). The established cell lines NCI/ADR-RES (RRID:CVCL_14520 and OVCAR-5 (RRID:CVCL_1628) ovarian carcinomas, 786-O (RRID:CVCL_1051) and A498 (RRID:CVCL_A498) renal cell carcinoma, NCI-H211 (ATCC, cat. CRL-5824; RRID:CVCL_1529), NCI-H196 (ATCC, cat. CRL-5823, RRID:CVCL_1509), SW 1271 (ATCC, cat. CRL-2177, RRID:CVCL_1716) and NCI-H1876 (ATCC, cat. CRL-5902, RRID:CVCL_1503) small cell lung carcinomas, MDA-MB-231 (RRID:CVCL_0062) and MDA-MB-468 (RRID:CVCL_0419)breast carcinomas (10-12). Pooled donor human umbilical vein endothelial cells (HUVEC, Lonza, cat. CC-2519) and human mesenchymal stem cells (hMSC, Lonza, cat. PT-2501) were purchased from Lonza (Walkersville, MD).
Cell Culture. All cells were maintained in an incubator at 37 degrees C and 5% CO2 with 95% humidity. The PDC lines were cultured according to standard operating procedures established by the NCI PDMR (https://pdmr.cancer.gov). Briefly all PDCs were thawed and cultured in Matrigel-coated flasks prepared with a working solution of 1X Ham's F-12 nutrient mix, without supplementation (Invitrogen, Waltham, MA, cat. 11765054), 100 U/mL penicillin-streptomycin (Invitrogen, cat. 15140122), and 2.5% Matrigel (Corning Inc., Corning, NY, cat. 354248) for the first three passages. […]
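Further: spheroids exposed to agents for seven days before readout.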

For the compound `Cn1ncnc1C1c2n[nH]c(=O)c3cc(F)cc(c23)NC1c1ccc(F)cc1` (stereo unspecified), the pIC50 is less than 7.00. Further, the viability, T/C (compound 0.000316 µM) is 97.3% and 103%. In addition, the viability, T/C (compound 0.001 µM) was 92.2% and 108%. For the same compound, the viability, T/C (compound 0.00316 µM) is 96% and 98.3%. Under “compound 0.01 µM”, the viability, T/C was 99.2% and 101%. Besides, under “compound 0.0316 µM”, the viability, T/C is 89.6% and 93.2%. Moreover, the viability, T/C (compound 0.1 µM) was 94% and 91.3%.
Take `NS(=O)(=O)OCC1CC(n2ccc3c(NC4CCc5ccccc54)ncnc32)CC1O` (stereo unspecified): the pIC50 was less than 5.52. For the same compound, the viability, T/C (compound 0.00949 µM) was 115% and 114%. Under “compound 0.03 µM”, the viability, T/C was 98.1% and 121%. Besides, the viability, T/C (compound 0.0949 µM) was 91.9% and 121%. Further, under “compound 0.3 µM”, the viability, T/C is 99.7% and 70.9%. Under “compound 0.949 µM”, the viability, T/C was 54.7% and 62.8%. The viability, T/C (compound 3 µM) was 55.3% and 60%.
For the compound `Nc1ccccc1NC(=O)c1ccc(CNC(=O)OCc2cccnc2)cc1`, the pIC50 was 6.40 and 6.38. Also, for the setting “compound 0.00949 µM”, the viability, T/C was 100% and 112%. Moreover, the viability, T/C (compound 0.03 µM) is 73.8% and 105%. For the same compound, the viability, T/C (compound 0.0949 µM) was 75% and 76.2%. In addition, for the setting “compound 0.3 µM”, the viability, T/C is 56.3% and 69.2%. Besides, the viability, T/C (compound 0.949 µM) is 38.6% and 20.9%. The viability, T/C (compound 3 µM) is 11.8% and 1.21%.
For the compound `Nc1ccn(C2OC(CO)C(O)C2(F)F)c(=O)n1` (stereo unspecified), the viability, T/C reads like this: (compound 0.000949 µM) 64.7% and 96.4%; (compound 0.003 µM) 56.8% and 94.6%; (compound 0.00949 µM) 49% and 73.2%; (compound 0.03 µM) 38.4% and 57.3%; (compound 0.0949 µM) 37.5% and 50.2%; (compound 0.3 µM) 34.7% and 50.1%.
On to `Nc1ncn(C2CC(O)C(CO)O2)c(=O)n1` (stereo unspecified), for which the pIC50 was less than 6.00. Moreover, the viability, T/C (compound 0.00316 µM) was 89% and 109%. In addition, the viability, T/C (compound 0.01 µM) was 105% and 103%. The viability, T/C (compound 0.0316 µM) was 83.9% and 95.3%. In addition, the viability, T/C (compound 0.1 µM) was 78.7% and 96.2%. The viability, T/C (compound 0.316 µM) was 80.5% and 91.1%. In addition, the viability, T/C (compound 1 µM) was 79.3% and 85.2%.
For the compound `Nc1ncn(C2CC(O)C(CO)S2)c(=O)n1` (stereo unspecified), the pIC50 is less than 6.52. Also, the viability, T/C (compound 0.000949 µM) is 96% and 102%. Moreover, the viability, T/C (compound 0.003 µM) is 96.2% and 104%. The viability, T/C (compound 0.00949 µM) was 103% and 100%. Besides, where the note is “compound 0.03 µM”, the viability, T/C is 76.5% and 87.5%. Also, where the note is “compound 0.0949 µM”, the viability, T/C is 76.6% and 87.2%. The viability, T/C (compound 0.3 µM) is 62.8% and 79.2%.
Turning to `O=C(C=Cc1cccc(S(=O)(=O)Nc2ccccc2)c1)NO`, the pIC50 is 6.40 and < 5.52. For the same compound, the viability, T/C (compound 0.00949 µM) was 87.5% and 110%. Besides, the viability, T/C (compound 0.03 µM) was 96.6% and 99.4%. For the same compound, the viability, T/C (compound 0.0949 µM) was 75.9% and 90.7%. Further, the viability, T/C (compound 0.3 µM) was 54.9%. Further, the viability, T/C (compound 0.949 µM) is 30.9% and 11.4%.
For `O=C(C=Cn1cnc(-c2cc(C(F)(F)F)cc(C(F)(F)F)c2)n1)NNc1cnccn1`, the pIC50 is 7.77 and 7.12. Also, the viability, T/C (compound 0.00316 µM) was 63.9% and 63.1%. Where the note is “compound 0.01 µM”, the viability, T/C was 51.8% and 58%. In addition, the viability, T/C (compound 0.0316 µM) was 43.4% and 58.5%. For the setting “compound 0.1 µM”, the viability, T/C is 40.6% and 47.5%. Moreover, the viability, T/C (compound 0.316 µM) was 31.4% and 38.6%. For the same compound, the viability, T/C (compound 1 µM) was 21.8% and 36.8%.
For the compound `O=C(c1cc(Cc2n[nH]c(=O)c3ccccc23)ccc1F)N1CCN(C(=O)C2CC2)CC1`, the pIC50 is less than 5.00. Besides, the viability, T/C (compound 0.0316 µM) is 105% and 108%. Besides, where the note is “compound 0.1 µM”, the viability, T/C is 103% and 108%. Besides, the viability, T/C (compound 0.316 µM) is 94.7% and 105%. The viability, T/C (compound 1 µM) was 92.7% and 102%. Also, for the setting “compound 3.16 µM”, the viability, T/C is 79% and 91.8%. Moreover, the viability, T/C (compound 10 µM) is 68.4% and 69.3%.
